Laboratory results from patent US20060223996A1, “IL-12 modulatory compounds” (Synta Pharmaceuticals Corp., priority 2004, published 2006).

Tested on: IL-12
Experiment: Human in vitro assay: inhibition of IL-12 production in IFNγ/LPS- or IFNγ/SAC-stimulated human PBMC or THP-1 cells (ELISA)
Format: cell-based
Conditions: read-out: IC50 Range (representative in vitro IC50 data)
How it was run: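 PBMC (5×10^5 cells/well) primed with IFNγ 30 U/mL for 22 h then LPS 1 μg/mL, or IFNγ 100 U/mL then SAC 0.01%; THP-1 primed with IFNγ 100 U/mL for 22 h then SAC 0.025%, with compound in 0.25% DMSO. Supernatant IL-12 p70/p40 measured by sandwich ELISA after 18 h; IC50 derived; viability by MTS.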

Structure (SMILES) | IC50
CC(=O)N1CCN(c2cc(C(=O)Nc3ccc4[nH]c(C)c(C)c4c3)nc(N3CCOCC3)n2)CC1 [Compound 257, 6-(4-acetylpiperazin-1-yl)-N-(2,3-dimethyl-1H-indol-5-yl)-2-morpholinopyrimidine-4-carboxamide] | < 1000 nM
O=C(Nc1cc(-c2cccs2)[nH]n1)c1cc(OCCN2CCOCC2)nc(N2CCOCC2)n1 [Compound 45, 2-Morpholin-4-yl-6-(2-morpholin-4-yl-ethoxy)-pyrimidine-4-carboxylic acid (5-thiophen-2-yl-1H-pyrazol-3-yl)-amide] | ≥ 1000 nM
O=C(Nc1ccc(Nc2ccccc2)cc1)c1cc(OCCN2CCOCC2)nc(N2CCOCC2)n1 [Compound 284, 2-Morpholin-4-yl-6-(2-morpholin-4-yl-ethoxy)-pyrimidine-4-carboxylic acid (4-phenylamino-phenyl)-amide] | ≥ 1000 nM
O=C(Nc1ccc2c(c1)NCCC2)c1cc(OCCN2CCOCC2)nc(N2CCOCC2)n1 [Compound 296, 2-Morpholin-4-yl-6-(2-morpholin-4-yl-ethoxy)-pyrimidine-4-carboxylic acid (1,2,3,4-tetrahydro-quinolin-7-yl)-amide] | ≥ 1000 nM
COCCN(C)c1cc(C(=O)Nc2cccc(C(C)C)c2)nc(N2CCOCC2)n1 [Compound 205, N-(3-isopropylphenyl)-6-((2-methoxyethyl)(methyl)amino)-2-morpholinopyrimidine-4-carboxamide] | < 1000 nM
Cc1ccc(N)c(NC(=O)c2cc(OCCN3CCOCC3)nc(N3CCOCC3)n2)c1 [Compound 272, 2-Morpholin-4-yl-6-(2-morpholin-4-yl-ethoxy)-pyrimidine-4-carboxylic acid (2-amino-5-methyl-phenyl)-amide] | ≥ 1000 nM

Other lines, results leading:

IC50 | Structure (SMILES)
< 1000 nM | O=C(Nc1ccc2[nH]c3c(c2c1)CCCC3)Nc1cc(OCCN2CCOCC2)nc(N2CCOCC2)n1 [Compound 325, 1-[2-Morpholin-4-yl-6-(2-morpholin-4-yl-ethoxy)-pyrimidin-4-yl]-3-(6,7,8,9-tetrahydro-5H-carbazol-3-yl)-urea]
< 1000 nM | Cc1c(C)n(C)c2ccc(NC(=O)c3cc(OCCN4CCOCC4)nc(N4CCOCC4)n3)cc12 [Compound 24, 2-Morpholin-4-yl-6-(2-morpholin-4-yl-ethoxy)-pyrimidine-4-carboxylic acid (1,2,3-trimethyl-1H-indol-5-yl)-amide]
< 1000 nM | CCNC(=O)CNc1cc(C(=O)Nc2ccc3[nH]c(C)c(C)c3c2)nc(N2CCOCC2)n1 [Compound 105, 6-(Ethylcarbamoylmethyl-amino)-2-morpholin-4-yl-pyrimidine-4-carboxylic acid (2,3-dimethyl-1H-indol-5-yl)-amide]
≥ 1000 nM | CC1CCc2ccc(NC(=O)c3cc(OCCN4CCOCC4)nc(N4CCOCC4)n3)cc2N1C (centres unmarked) [Compound 321, 2-Morpholin-4-yl-6-(2-morpholin-4-yl-ethoxy)-pyrimidine-4-carboxylic acid (1,2-dimethyl-1,2,3,4-tetrahydro-quinolin-7-yl)-amide]
≥ 1000 nM | COCCN(C)c1cc(C(=O)NCCN(C)C)nc(N2CCOCC2)n1 [Compound 162, 6-[(2-Methoxy-ethyl)-methyl-amino]-2-morpholin-4-yl-pyrimidine-4-carboxylic acid (2-dimethylamino-ethyl)-amide]
< 1000 nM | Cc1c(C)n(O)c2ccc(NC(=O)c3cc(OCCN4CCOCC4)nc(N4CCOCC4)n3)cc12 [Compound 320, 2-Morpholin-4-yl-6-(2-morpholin-4-yl-ethoxy)-pyrimidine-4-carboxylic acid (1-hydroxy-2,3-dimethyl-1H-indol-5-yl)-amide]
< 1000 nM | O=C(Nc1ccc2[nH]c3c(c2c1)CCCC3)c1cc(N2CCC(O)CC2)nc(N2CCOCC2)n1 [Compound 184, 6-(4-Hydroxy-piperidin-1-yl)-2-morpholin-4-yl-pyrimidine-4-carboxylic acid (6,7,8,9-tetrahydro-5H-carbazol-3-yl)-amide]
≥ 1000 nM | Cc1cccc(NC(=O)Nc2nc(OCCc3ccccn3)cc(N3CCOCC3)n2)c1 [Compound 71, 1-[4-Morpholin-4-yl-6-(2-pyridin-2-yl-ethoxy)-pyrimidin-2-yl]-3-m-tolyl-urea]
